The record followed here is patent US11096910B2, “Metabolically robust analogs of CYP-eicosanoids for the treatment of cardiac disease” (OMEICOS THERAPEUTICS GMBH, priority 2015, dated 2021).

For orientation: solubility means the dissolved amount per volume that the medium holds. Usually AUC(0-inf) stands for total exposure, with the tail of the curve extrapolated. Read a low AUC(0-inf) as low exposure. What is called bioavailability is the share of a dose that reaches the circulation, judged against a reference dose that is usually intravenous. A low value points to poor availability. A word on the Tmax: it is the time at which the peak concentration occurs. One may read the Cmax as the highest concentration seen after dosing.

Converted amounts (≈) assume the structure as drawn. Read-outs that look alike come from different tables or passages of the source.

Data set [1] is described as follows: Aqueous solubility. The data set is classed as physicochemical. As to conditions: for solubility at 24 h: deionised water, 37 °C, pH 5.9, water, thermodynamic from solid, pH 5.90, 24 hours agitation. Here is the method: Known amounts of the compounds were suspended by agitation for 24 hours. The filtrates were isolated and content of the appropriate compounds was determined by HPLC analysis.

Data set [2] relates to male B16 mice. Put plainly: Atrial fibrillation induced by programmed electrical stimulation in a mouse model of moderate cardiac hypertrophy. The data set is classed as in vivo. On the procedure:
Study design: To gain insight into in-vivo effect of synthetic 17,18-EEQ-agonists, atrial fibrillation studies were performed in male B16 mice as described in Westphal, C. et al., PLoS ONE. 2013, 8(8): e73490. Briefly, moderate cardiac hypertrophy was induced by continuous infusion of isoproterenol via subcutaneously implanted osmotic minipumps (Alzet) at a rate of 40 mg/kg/d for two weeks. After two weeks of treatment, ECG and electrophysiological data were recorded. Programmed electrical stimulation (PES) was performed in the right atrium or right ventricle using a digital electrophysiology lab (EP Tracer; CardioTek) to determine refractory periods and arrhythmia inducibility. Atrial arrhythmias were defined as fast (>800 bpm) electrical activity in the right atrial electrograms, with ECG P waves different to normal sinus rhythm and subsequent fast, but physiological activation of the ventricles (ECG R wave and right ventricular electrograms similar to normal sinus rhythm). Atrial fibrillation was defined as fast, irregular activity in the right atrial electrograms with irregular conduction to the ventricles (high variability of R—R intervals). Ventricular arrhythmias were defined by fast (>800 bpm) activity originating from the ventricular myocardium (change in morphology of ECG R waves and local right ventricular electrograms compared to normal sinus rhythm). During inhalation anesthesia with isoflurane (2% with 360 ml/min air flow; Univentor 400 anesthesia unit), the animals' body temperature was kept constant at 37° C. using a homeothermic blanket control unit (Hugo Sachs Elektronik, Harvard Apparatus) with rectal temperature control. After preparation of the right jugular vein, a 2 French octapolar electrophysiology catheter (CIB'ER mouse cath; NuMed) was placed in the right heart, including atrium and ventricle. PES was performed using a standardized protocol that included trains of 10 basal stimuli (S1) followed by up to 3 extra stimuli (S2-S4), delivered with a coupling interval decreasing in steps of 5 ms until ventricular or atrial refractoriness was reached. The stimulation procedures were repeated at three different basal cycle lengths (100 ms, 90 ms, 80 ms) with each animal. Occurrence and duration of inducible arrhythmias were documented. Only stimulation protocols with reproducible arrhythmias longer than five consecutive beats in ventricle and episodes longer than 350 ms in the atria were considered positive. “Arrhythmia inducibility” was calculated as the percentage of effective (positive) out of total protocols applied. Accordingly, the arrhythmia inducibility of individual animals could take a value of 0, 33, 66 or 100%. […]

The target in data set [3] is T1, human soluble expoxide hydrolase (sEH) (Homo sapiens, UniProt P34913).
T1 construct: purchased Cayman Chemicals
T1 sequence (P34913 1-555): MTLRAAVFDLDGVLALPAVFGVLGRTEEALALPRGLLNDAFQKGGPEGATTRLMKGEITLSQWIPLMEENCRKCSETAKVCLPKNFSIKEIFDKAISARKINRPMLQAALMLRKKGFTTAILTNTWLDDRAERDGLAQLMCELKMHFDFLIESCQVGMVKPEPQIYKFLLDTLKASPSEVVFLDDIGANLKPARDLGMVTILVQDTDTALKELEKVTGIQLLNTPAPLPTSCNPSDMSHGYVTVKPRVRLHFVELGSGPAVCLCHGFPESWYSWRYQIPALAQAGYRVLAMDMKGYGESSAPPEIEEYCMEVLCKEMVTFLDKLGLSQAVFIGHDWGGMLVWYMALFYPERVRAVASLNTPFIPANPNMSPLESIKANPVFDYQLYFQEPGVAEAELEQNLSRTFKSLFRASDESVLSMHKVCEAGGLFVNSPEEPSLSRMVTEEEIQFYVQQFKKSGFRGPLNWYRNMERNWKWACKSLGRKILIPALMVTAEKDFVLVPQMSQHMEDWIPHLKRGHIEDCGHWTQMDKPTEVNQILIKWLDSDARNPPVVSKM
Nature of the data set: In vitro inhibition of recombinant human soluble epoxide hydrolase. The data set is classed as biochemical. As to conditions: 10 μM compound, 50 μM 14,15-EET substrate, vs vehicle control.
Procedure: A selection of compounds was tested for the ability to inhibit human soluble expoxide hydrolase (sEH). […] Briefly, the assay was performed at 37° C. for 20 min in a final volume of 100 μL potassium phosphate buffer (0.1 M, pH 7.2) containing 50 μM 14,15-EET as substrate. The reactions were started by adding enzyme (107.5 ng per reaction, 12.06 U/ml activity, Cayman Chemicals) and terminated with 300 μl ethyl acetate. […] Metabolically robust analogs shown in FIG. 5 were tested at final concentration of 10 μM for potency of sEH-inhibition compared to vehicle control (1% DMSO), n=2-4.

Data set [4] can be described thus: Plasma pharmacokinetics after single intravenous and oral administration. Also noted: species or system male C57BL/6 mice. Conditions: male, C57BL/6, mouse, in vivo. Here is the method: To gain insight into pharmacological properties of synthetic 17,18-EEQ agonists pharmacokinetic studies were performed with two selected compounds (Comp-02 and Comp-06). These compounds were pharmacologically evaluated in plasma after single intravenous and oral administration. Therefore, male C57BL/6 mice (Janvier Labs (France), n=12 per group) were administered to the test item at a dose of 2 mg/kg (i.v.) and 8 mg/kg (p.o.), respectively. Intravenous application of Comp-02 (sodium salt in isotonic salt solution) and Comp-06 (free acid in DMSO/PEG400 20:80) was performed via the tail vein, and for oral administration via gavage. […] Blood sampling was of 100 μl were obtained at two different time point for each mouse (0.083/2 h, 0.25/4 h, 0.5/8 h and 1/24 h). Biological samples were subjected to an extraction procedure (40 μl Acetonitril+22.4 μl sample, shaking, 10 min centrifugation at 6000×g at room temperature, dilution of 50 μl supernatant 1:1 with water). For analysis 20 μl of sample were injected into the LC-MS, Accela 1250 UHPLC system, Accela Open Autosampler, Q-Exactive mass spectrometer (Thermo Fisher Scientific). Appropriate samples were used as controls: zero sample, calibration standard and QC sample. The pharmacokinetic analysis were performed applying a non-compartment model using the Kinetica 5.0 software (Thermo Scientific, Waltham, USA). All given parameters were obtained by trapezoid area calculation.

Setting [5] is: single i.v. injection 2 mg/kg, vs vehicle.

On to `CNC(=O)C(=O)NCCCC/C=C\CCCCCCCOCC(=O)O` [Comp-02, 2-((13-(2-(methylamino)-2-oxoacetamido)tridec-8(Z)-en-1-yl)oxy)acetic acid], for which, in data set [1] (37° C.), the “solubility in deionised water relative to Comp-06” value is about 10 ×. The solubility at 24 h in data set [1] (read-out: Average solubility at 37° C.) came out at 68 µg/mL (≈ 191 µM). In addition, in data set [1] (read-out: Highest solubility value at 37° C.), the solubility at 24 h is 75 µg/mL (≈ 210 µM). Further, in data set [1] (read-out: Lowest solubility value at 37° C.), the solubility at 24 h came to 59 µg/mL (≈ 166 µM). In addition, the “obvious negative side effects” value in data set [2] (single i.v. bolus injection, 2 mg/kg body weight) is recorded as “did not induce any obvious negative side effects”. Also, in data set [2] (setting [5]), the “reduction of the inducibility of sustained arrhythmia episodes” value was found to be 62%, the “severity of induced atrial fibrillation episodes” value is given as “significantly reduced” and the “sum of totally induced atrial fibrillation episodes (atrial fibrillation burden)” value was “reduced significantly”. Besides, the “inhibition of human sEH” value in data set [3] is recorded as “did not show sEH-inhibition”. Besides, in data set [4] (iv, 2 mg/kg), the total exposure AUC(0-inf) is 524 ng·h/mL and the bioavailability was 100%. Moreover, in data set [4] (po, 8 mg/kg), the AUC(0-inf) was determined as 1820 ng·h/mL; the “Cmax, maximal observed plasma concentration” value worked out at 903.8 ng/mL; the Tmax worked out at 18 min; the bioavailability turned out to be 87%. The compound also showed a Cmax in data set [4] (po, 8 mg/kg, Cmax, maximal observed plasma concentration) of 903 ng/mL.
